Source: PubChem BioAssay (NCI)
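Five concentrations, 48 hours, 96-well plates. The concentration for 50% growth inhibition is given as GI50. TGI: concentration producing complete growth inhibition.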

Key:
Test in all cases: DTP human tumour cell line panel, 48 h
SW-620 colon = test system: SW-620 colon
MALME-3M melanoma = test system: MALME-3M melanoma
A498 renal = test system: A498 renal
UACC-257 melanoma = test system: UACC-257 melanoma
HL-60(TB) leukemia = test system: HL-60(TB) leukemia
TK-10 renal = test system: TK-10 renal
MCF7 breast = test system: MCF7 breast
SF-268 CNS = test system: SF-268 CNS
SN12C renal = test system: SN12C renal
UO-31 renal = test system: UO-31 renal

SMILES | TGI (SW-620 colon) | TGI (MALME-3M melanoma) | TGI (A498 renal) | TGI (UACC-257 melanoma) | TGI (HL-60(TB) leukemia) | TGI (TK-10 renal) | TGI (MCF7 breast) | TGI (SF-268 CNS) | TGI (SN12C renal) | TGI (UO-31 renal) | GI50 (SW-620 colon) | GI50 (MALME-3M melanoma) | GI50 (A498 renal) | GI50 (UACC-257 melanoma) | GI50 (HL-60(TB) leukemia) | GI50 (TK-10 renal) | GI50 (MCF7 breast) | GI50 (SF-268 CNS) | GI50 (SN12C renal) | GI50 (UO-31 renal)
O=[N+]([O-])c1ccc(Cl)cc1C=NC12CC3CC(CC(C3)C1)C2 | > 100 µM | > 94 µM | > 100 µM | > 31.6 µM | 15.6 µM | > 100 µM | > 100 µM | > 100 µM | > 100 µM | > 100 µM | – | – | – | – | – | – | – | – | – | –
COC(=O)CCN(CCC(=O)OC)C1CC1 | > 100 µM | > 100 µM | > 100 µM | > 100 µM | > 100 µM | > 100 µM | > 100 µM | > 100 µM | > 100 µM | > 100 µM | – | – | – | – | – | – | – | – | – | –
O=C1C(N=Nc2ccc(-c3nc4ccccc4[nH]3)cc2)NC(=S)N1c1ccccc1 (stereo not given) | 80.1 µM | > 100 µM | > 100 µM | > 100 µM | > 100 µM | > 100 µM | 24.8 µM | > 100 µM | > 100 µM | > 100 µM | – | – | – | – | – | – | – | – | – | –
NCCCCNC1(c2cc3ccccc3s2)CCCCC1 | 14.6 µM | 4.01 µM | 6.04 µM | 3.38 µM | 12.6 µM | 10.4 µM | 9.75 µM | 13.5 µM | 25.1 µM | 9.94 µM | – | – | – | – | – | – | – | – | – | –
CCOc1cc(C2SCC(=O)N2c2nc3cc4sc(N5C(=O)CSC5c5ccc(O)c(OCC)c5)nc4cc3s2)ccc1O (stereo not given) | > 100 µM | > 100 µM | > 100 µM | > 58.5 µM | > 100 µM | > 100 µM | > 86.3 µM | > 100 µM | > 100 µM | > 100 µM | – | – | – | – | – | – | – | – | – | –
O=C(O)C1SCCS1 | > 100 µM | > 100 µM | > 100 µM | > 100 µM | > 100 µM | > 100 µM | > 100 µM | > 100 µM | > 100 µM | > 100 µM | – | – | – | – | – | – | – | – | – | –
OCC(O)C(O)C(O)C(/C=N\Nc1ncnc2ccc(Br)cc12)=N/Nc1ncnc2ccc(Br)cc12 (stereo not given) | > 100 µM | 57 µM | > 100 µM | > 100 µM | > 100 µM | > 100 µM | > 100 µM | > 100 µM | > 100 µM | > 100 µM | – | – | – | – | – | – | – | – | – | –
CC(C)(C)OC(=O)NCC(=O)N1CCCN(C(=O)CNC(=O)OC(C)(C)C)CC1 | > 100 µM | > 100 µM | > 100 µM | > 100 µM | > 100 µM | > 100 µM | > 100 µM | > 100 µM | > 100 µM | > 100 µM | – | – | – | – | – | – | – | – | – | –
Cc1cccc2c1C/C(=C\c1cccc(C)c1C(=O)O)C2=O | > 100 µM | > 100 µM | > 100 µM | > 100 µM | > 100 µM | > 100 µM | > 100 µM | > 100 µM | > 100 µM | > 100 µM | – | – | – | – | – | – | – | – | – | –
CN(C)CCOC1(CC2CCCCC2)CCC(C(C)(C)C)CC1 (stereo not given) | 12.7 µM | 6.65 µM | 12.9 µM | 11.8 µM | 7.35 µM | 25.5 µM | 7.73 µM | 25.4 µM | 20.6 µM | 15.6 µM | – | – | – | – | – | – | – | – | – | –
C[C@H](CCC1=NCCN1)[C@H]1CC[C@H]2[C@@H]3CC[C@@H]4C[C@H](O)CC[C@]4(C)[C@H]3C[C@H](O)[C@]12C | 44.6 µM | 27.9 µM | 65.1 µM | 28.7 µM | 36 µM | 26.9 µM | 28.5 µM | 20.5 µM | 34 µM | 52.6 µM | – | – | – | – | – | – | – | – | – | –
Nc1nc2cc(CNc3ccc(C(=O)NC(CCC(=O)O)C(=O)O)cc3)ccc2nc1-c1ccccc1 (stereo not given) | > 10 µM | > 10 µM | > 10 µM | > 10 µM | > 10 µM | > 10 µM | > 10 µM | > 10 µM | > 10 µM | > 10 µM | – | – | – | – | – | – | – | – | – | –
CC(=O)OCC1OC(c2nnc(C)o2)=CC(OC(C)=O)C1OC(C)=O (stereo not given) | > 100 µM | > 100 µM | > 100 µM | > 100 µM | > 100 µM | > 100 µM | > 100 µM | > 100 µM | > 100 µM | > 100 µM | – | – | – | – | – | – | – | – | – | –
CC(=O)NC1=C(C)C(=O)c2c(nc3n2CC[C@H]3OC(C)=O)C1=O | 3.26 µM | 3.14 µM | 30.5 µM | 2.2 µM | 8.97 µM | 13.9 µM | 3.37 µM | 10.7 µM | 3.17 µM | 6.78 µM | – | – | – | – | – | – | – | – | – | –
CC(=N\N=C\c1ccccn1)/C(C)=N/N=C(C)/C(C)=N/N=C(C)/C(C)=N/N=C/c1ccccn1 | > 100 µM | > 100 µM | > 100 µM | > 100 µM | > 100 µM | > 100 µM | > 100 µM | > 100 µM | > 100 µM | > 100 µM | – | – | – | – | – | – | – | – | – | –
CC(C)(C)c1cc(C2COC(=O)COCC(=O)OCCOCCOCCO2)cc(C(C)(C)C)c1O (stereo not given) | > 100 µM | > 100 µM | > 91.9 µM | > 100 µM | > 31.6 µM | 43.7 µM | > 100 µM | 41.3 µM | 20.8 µM | 35.7 µM | – | – | – | – | – | – | – | – | – | –
O=C1O[C@]2(c3ccccc3)C(c3ccccc3)=C[C@]2(C(=O)c2ccccc2)C1=O | 45.1 µM | > 100 µM | > 100 µM | > 100 µM | 22.4 µM | 73.5 µM | 81.8 µM | > 100 µM | > 100 µM | 61.1 µM | – | – | – | – | – | – | – | – | – | –
CCS(=O)(=O)c1c2cc(OC)ccc2nc2ccc(OC)cc12 | > 100 µM | > 100 µM | > 100 µM | > 100 µM | > 100 µM | > 100 µM | > 100 µM | > 100 µM | > 100 µM | > 100 µM | – | – | – | – | – | – | – | – | – | –
CC[C@@H]1CC[C@@H]2[C@H](CC[C@]3(C)[C@@H](OS(=O)(=O)c4ccc(C)cc4)CC[C@@H]23)[C@H]1CO | > 100 µM | > 100 µM | > 100 µM | > 100 µM | > 100 µM | > 100 µM | > 100 µM | > 100 µM | > 100 µM | 52.5 µM | – | – | – | – | – | – | – | – | – | –
COc1ccc2c(c1)-c1nn(CCN(C)C)c3ccc(C(=O)NCCCN(C)CCCNC(=O)c4ccc5c6c(nn5CCN(C)C)-c5cc(OC)ccc5Nc46)c(c13)N2 | 1.54 µM | 0.762 µM | 0.633 µM | 0.614 µM | 2.63 µM | 4.95 µM | 1.97 µM | 2.46 µM | 0.983 µM | 4.41 µM | – | – | – | – | – | – | – | – | – | –
O=C(Nc1cccc(-n2ccc3c(NC(=O)c4ccccc4)nccc32)c1)c1cc(N2CCOCC2)cc(C(F)(F)F)c1 | > 100 µM | > 100 µM | 0.729 µM | > 100 µM | > 100 µM | > 95.5 µM | > 100 µM | > 100 µM | > 100 µM | > 100 µM | 0.0484 µM | 1.25 µM | 0.0315 µM | 0.109 µM | 0.514 µM | 0.435 µM | 0.0332 µM | 0.264 µM | 0.467 µM | 0.754 µM
C#CCOC(=O)C(N)CCCN=C(N)N (stereo not given) | > 100 µM | > 100 µM | > 100 µM | > 100 µM | > 100 µM | > 100 µM | > 100 µM | > 100 µM | > 100 µM | > 100 µM | – | – | – | – | – | – | – | – | – | –
Nc1ccc(-n2c(=O)oc3ccc(Cl)cc3c2=O)c(Cl)c1 | 8.18 µM | 0.362 µM | 0.114 µM | 0.433 µM | 0.267 µM | 20.4 µM | > 31.8 µM | 2.33 µM | 1.07 µM | 0.533 µM | 0.161 µM | 0.0838 µM | 0.0372 µM | 0.0741 µM | 0.0499 µM | 0.187 µM | 0.262 µM | 0.108 µM | 0.0971 µM | 0.0872 µM
CCOC(=O)C(=Cn1c(=S)[nH]c2ccc([N+](=O)[O-])cc21)C(=O)OCC | > 100 µM | > 100 µM | > 100 µM | > 100 µM | > 100 µM | > 100 µM | > 100 µM | > 100 µM | > 100 µM | > 100 µM | – | – | – | – | – | – | – | – | – | –
